Results as given in patent US9073863B2, “Cyanoquinoline compounds having activity in correcting mutant-CFTR processing and increasing ion transport and uses thereof” (The Regents of the University of California, priority 2011, dated 2015).

Experiments:
Assay type in all cases: cell-based
ΔF508-CFTR [1] = molecular target: T1, ΔF508-CFTR (Homo sapiens, UniProt P13569, DEL508-508); experiment: Short-circuit current (apical membrane chloride current) corrector assay in ΔF508-CFTR expressing FRT cells; details: 10 μM, 18-24 h incubation
T1 construct: expressed in transfected cells; host or cells: Fischer rat thyroid (FRT) epithelial cells, stably transfected
T1 sequence (P13569 with tags, fused parts or gaps DEL508-508): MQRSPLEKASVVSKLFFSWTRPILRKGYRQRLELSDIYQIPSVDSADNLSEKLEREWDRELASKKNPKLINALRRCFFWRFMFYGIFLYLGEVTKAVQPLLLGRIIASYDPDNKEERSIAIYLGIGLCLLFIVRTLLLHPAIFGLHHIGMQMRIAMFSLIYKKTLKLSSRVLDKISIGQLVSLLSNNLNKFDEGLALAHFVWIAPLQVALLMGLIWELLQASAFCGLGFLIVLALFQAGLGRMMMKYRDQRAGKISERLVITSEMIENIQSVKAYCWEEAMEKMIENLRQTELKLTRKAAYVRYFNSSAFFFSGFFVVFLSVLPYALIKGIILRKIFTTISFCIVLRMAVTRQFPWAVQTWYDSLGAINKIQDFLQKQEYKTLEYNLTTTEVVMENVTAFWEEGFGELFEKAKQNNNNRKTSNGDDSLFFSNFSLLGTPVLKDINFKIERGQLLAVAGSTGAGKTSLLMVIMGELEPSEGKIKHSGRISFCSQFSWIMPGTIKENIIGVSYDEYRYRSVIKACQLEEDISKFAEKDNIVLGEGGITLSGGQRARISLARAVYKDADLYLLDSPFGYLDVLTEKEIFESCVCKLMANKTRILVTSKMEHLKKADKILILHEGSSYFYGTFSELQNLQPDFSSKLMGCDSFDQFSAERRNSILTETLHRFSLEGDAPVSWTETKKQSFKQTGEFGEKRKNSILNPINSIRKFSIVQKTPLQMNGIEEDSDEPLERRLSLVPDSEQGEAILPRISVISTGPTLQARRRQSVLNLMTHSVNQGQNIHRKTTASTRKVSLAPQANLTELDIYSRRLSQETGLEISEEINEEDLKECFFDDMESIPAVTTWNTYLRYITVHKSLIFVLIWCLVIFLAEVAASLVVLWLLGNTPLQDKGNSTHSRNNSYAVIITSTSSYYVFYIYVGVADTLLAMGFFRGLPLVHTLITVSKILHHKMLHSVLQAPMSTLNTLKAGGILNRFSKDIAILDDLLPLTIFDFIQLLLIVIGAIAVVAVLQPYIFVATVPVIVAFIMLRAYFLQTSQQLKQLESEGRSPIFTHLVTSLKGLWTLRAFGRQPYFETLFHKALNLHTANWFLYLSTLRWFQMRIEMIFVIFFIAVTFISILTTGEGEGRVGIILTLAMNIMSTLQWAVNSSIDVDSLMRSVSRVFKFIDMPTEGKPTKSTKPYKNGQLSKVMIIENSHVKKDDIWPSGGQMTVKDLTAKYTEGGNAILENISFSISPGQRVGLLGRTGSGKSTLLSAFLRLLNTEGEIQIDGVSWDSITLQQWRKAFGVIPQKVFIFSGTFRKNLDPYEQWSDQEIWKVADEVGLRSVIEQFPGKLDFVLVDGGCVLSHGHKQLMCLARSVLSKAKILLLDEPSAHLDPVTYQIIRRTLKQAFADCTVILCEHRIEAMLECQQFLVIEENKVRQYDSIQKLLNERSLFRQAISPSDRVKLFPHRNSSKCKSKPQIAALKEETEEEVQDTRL
Method: Short-circuit current measurements. ΔF508-CFTR-expressing FRT cells were cultured on Snapwell inserts for 7-9 days. For corrector testing, test compounds were incubated with FRT cells for 18-24 h at 37° C. prior to measurements. For potentiator testing, the FRT cells were incubated for 18-24 h at 27° C. prior to measurements. The basolateral solution contained 130 mM NaCl, 2.7 mM KCl, 1.5 mM KH2PO4, 1 mM CaCl2, 0.5 mM MgCl2, 10 mM glucose, and 10 mM Na-HEPES (pH 7.3). In the apical bathing solution, 65 mM NaCl was replaced by Na gluconate, and CaCl2 was increased to 2 mM. Solutions were bubbled with air and maintained at 37° C. The basolateral membrane was permeabilized with 250 μg/ml amphotericin B. Hemichambers were connected to a DVC-1000 voltage clamp (World Precision Instruments Inc.) via Ag/AgCl electrodes and 1 M KCl agar bridges for recording of short-circuit current.
Short-circuit current was measured as a definitive electrophysiological assay to verify Compound 22 corrector action. Apical membrane chloride current was measured in ΔF508-CFTR expressing FRT cells after basolateral membrane permeabilization and in the presence of a transepithelial chloride gradient (apical, 65 mM; basolateral, 130 mM). In FIG. 3C, incubation with Corr-4a (5 μM) is shown as reference (right). Forskolin (20 μM), genistein (50 μM) and CFTRinh-172 (10 μM) were added where indicated. […] FIG. 3D summarizes Compound 22 concentration dependence data from short-circuit current studies. […]
Short-circuit current was measured in an electrophysiology assay to verify corrector activity. Apical membrane chloride current was measured in ΔF508-CFTR expressing FRT cells after basolateral membrane permeabilization and in the presence of a transepithelial chloride gradient. […] To assay potentiator activity apical membrane chloride current was measured after low-temperature rescue, in response to CP-3 addition. CP-3 concentration-dependent increases in apical membrane current were measured in the presence of 5 μM forskolin. […]

ΔF508-CFTR [2] = molecular target: T1, ΔF508-CFTR; experiment: Corrector assay, YFP fluorescence plate reader iodide influx in ΔF508-CFTR expressing FRT cells; details: for Corrector Vmax / Corrector EC50 / EC50: 18-24 h with compound at 37° C., forskolin 20 μM + genistein 50 μM
Method: (§1) Screening procedures. Screening of compounds for activity was carried out using a Beckman Coulter platform equipped with FLUOstar fluorescence plate readers (Optima; BMG Labtech) with dual syringe pumps and 500±10 nm excitation and 535±15 nm emission filters (Chroma Corp.). For the corrector assay, FRT cells were grown at 37° C./5% CO2 for 18-24 h and then incubated for 18-24 h with 100 μL of medium containing test compounds (25 μM final concentration). At the time of the assay, cells were washed with PBS and then incubated for 10 min with PBS containing forskolin (20 μM) and genistein (50 μM). For the potentiator assay, FRT cells were grown at 37° C./5% CO2 for 18-24 h and then for 18-24 h at 27° C. At the time of the assay, cells were washed with PBS and then incubated for 10 min with PBS (50 μL) containing forskolin (20 μM) and test compound (0-25 μM final concentration). For both the corrector and potentiator assays, each well was assayed individually for I^− influx by recording fluorescence continuously (200 ms per point) for 2 s (baseline) and then for 12 s after rapid addition of 165 μL PBS in which 137 mM Cl^− was replaced by I^−. Initial I^− influx rate was computed by fitting the final 11.5 seconds of the data to an exponential for extrapolation of initial slope, which was normalized for background-subtracted initial fluorescence. All compound plates contained negative controls and positive controls (10 μM Corr-4a for corrector assay; 50 μM genistein for potentiator assay).
(§2) Screening of about 110,000 small molecules was done to identify new ΔF508-CFTR corrector scaffolds having high correction efficiency and/or having independent potentiator activity. […] FRT cells co-expressing human ΔF508-CFTR and a halide-sensing YFP were incubated with test compounds at 37° C. (corrector assay) or 27° C. (potentiator assay). ΔF508-CFTR function was assayed in a plate reader from YFP fluorescence quenching in response to iodide addition in the presence of forskolin (20 μM) plus genistein (50 μM) for corrector assay, or forskolin (20 μM) alone for potentiator assay. As shown in FIG. 1A (left), primary screening for corrector activity was done using a cell-based fluorescence assay of iodide influx in which FRT cells expressing ΔF508-CFTR and an iodide-sensitive YFP were incubated with test compounds at 10 μM for 18-24 h prior to assay. Iodide influx was measured by addition of extracellular iodide in the presence of a potentiator (50 μM genistein) and cAMP agonist (20 μM forskolin). Compound efficacy and potency (from concentration-dependence studies) in the corrector assay were compared to reference bithiazole Corr-4a (10 μM) and to low-temperature rescued cells. Active compounds were counter-screened for potentiator activity (FIG. 1A, right) in which iodide influx was measured in the ΔF508-CFTR expressing FRT cells after low-temperature rescue and in the presence of 20 μM forskolin.
(§3) Screening procedures. Plate reader activity assay was carried out using a Beckman Coulter platform containing a robotic arm, CO2 incubator containing microplate carousel, plate-washer, liquid handling work station, bar code reader, de-lidding station, plate sealer, and FLUOstar fluorescence plate readers (Optima; BMG LABTECH Gmbh), equipped with dual syringe pumps and 500±10 nm excitation and 535±15 nm emission filters (Chroma Corp.). For the corrector assay, ΔF508-CFTR-expressing FRT cells were grown at 37° C. (90% humidity; 5% CO2) for 18-24 h and then incubated for 18-24 h with 100 μL of medium containing test compounds (0-25 μM final concentration). At the time of the assay, cells were washed with PBS and then incubated for 10 min with PBS containing forskolin (20 μM) and genistein (50 μM). For the potentiator assay, FRT cells were grown at 37° C. (90% humidity; 5% CO2) for 18-24 h and then for 18-24 h at 27° C. […]

ΔF508-CFTR [3] = molecular target: T1, ΔF508-CFTR; experiment: Potentiator assay, YFP fluorescence plate reader iodide influx in low-temperature rescued ΔF508-CFTR expressing FRT cells; details: forskolin 20 μM + test compound
Method: as §1, §2, §3

[4] = Table VIII, FRT cells, I− influx
[5] = Table VIII, FRT cells 18-24 h at 27° C., I− influx
[6] = Table IX, additional experiments
[7] = Table IX, additional experiments, 18-24 h at 27° C.

## COc1ccc(C(=O)NCCNc2nc3cc(C)cc(C)c3cc2C#N)cc1 [Compound CP3]
ΔF508-CFTR [1]
  apical membrane current (corrector): increase in apical membrane current
ΔF508-CFTR [2]; concentration-dependence in corrector and potentiator I− influx assays (FIG. 2, FIG. 7)
  corrector and potentiator activities, in words: both corrector and potentiator activities

## COc1ccc(C(=O)N2CCN(c3nc4cc(C)cc(C)c4cc3C#N)CC2)cc1 [drawing 154]
ΔF508-CFTR [2]; [4]
  Corrector Vmax: inactive
ΔF508-CFTR [3]; [5]
  EC50: 1.3 µM
  Potentiator Vmax: 281 µM/s

## Cc1cc(C)c2cc(C#N)c(N3CCN(C(=O)c4ccccn4)CC3)nc2c1 [drawing 155]
ΔF508-CFTR [2]; [4]
  Corrector Vmax: inactive
ΔF508-CFTR [3]; [5]
  Potentiator Vmax: 102 µM/s

## COc1cccc(C(=O)NCCCNc2nc3cc(C)cc(C)c3cc2C#N)c1 [drawing 159]
ΔF508-CFTR [2]; [4]
  Corrector Vmax: 134 µM/s
ΔF508-CFTR [3]; [5]
  EC50: 4.6 µM
  Potentiator Vmax: 147 µM/s

## COc1ccc(C(=O)NCCCNc2nc3cc(C)cc(C)c3cc2C#N)cc1 [drawing 160]
ΔF508-CFTR [2]; [4]
  Corrector Vmax: 112 µM/s
ΔF508-CFTR [3]; [5]
  EC50: 5 µM
  Potentiator Vmax: 231 µM/s

## Cc1cc(C)c2cc(C#N)c(NCCCNC(=O)c3cccnc3)nc2c1 [drawing 162]
ΔF508-CFTR [2]; [4]
  Corrector EC50: inactive
  Corrector Vmax: inactive
ΔF508-CFTR [3]; [5]
  EC50: 16 µM
  Potentiator Vmax: 115 µM/s

## COc1cccc(C(=O)NCCNc2nc3cc(C)cc(C)c3cc2C#N)c1 [drawing 164]
ΔF508-CFTR [2]; [6]
  Corrector Vmax: 300 µM/s
  EC50: 2.2 ± 0.3 µM
ΔF508-CFTR [3]; [7]
  EC50: 5.9 ± 0.5 µM
  Potentiator Vmax: 216 µM/s

## COc1ccccc1C(=O)NCCNc1nc2cc(C)cc(C)c2cc1C#N [drawing 165]
ΔF508-CFTR [2]; [6]
  Corrector Vmax: 114 µM/s
  EC50: 11 ± 0.9 µM
ΔF508-CFTR [3]; [7]
  Potentiator Vmax: 154 µM/s

## COc1ccc(C(=O)NCCNc2nc3cc(C)cc(C)c3cc2C#N)cc1 [drawing 166]
ΔF508-CFTR [2]; [6]
  Corrector Vmax: 172 µM/s
ΔF508-CFTR [3]; [7]
  Potentiator Vmax: 181 µM/s

## Cc1cc(C)c2cc(C#N)c(NCCNC(=O)c3ccccn3)nc2c1 [drawing 167]
ΔF508-CFTR [2]; [6]
  Corrector EC50: inactive
  Corrector Vmax: inactive
ΔF508-CFTR [3]; [7]
  EC50: 1.2 ± 0.4 µM
  Potentiator Vmax: 80 µM/s

## Cc1cc(C)c2cc(C#N)c(NCCNC(=O)c3cccnc3)nc2c1 [drawing 168]
ΔF508-CFTR [2]; [6]
  Corrector Vmax: 151 µM/s
  EC50: 2.7 ± 0.6 µM
ΔF508-CFTR [3]; [7]
  EC50: 13.2 ± 0.6 µM
  Potentiator Vmax: 242 µM/s

## Cc1cc(C)c2cc(C#N)c(NCCNC(=O)c3ccncc3)nc2c1 [drawing 169]
ΔF508-CFTR [2]; [6]
  Corrector Vmax: 176 µM/s
  EC50: 7.3 ± 0.8 µM
ΔF508-CFTR [3]; [7]
  EC50: 10 ± 3.1 µM
  Potentiator Vmax: 220 µM/s

## COc1ccccc1C(=O)N1CCN(c2nc3cc(C)cc(C)c3cc2C#N)CC1 [drawing 170]
ΔF508-CFTR [2]; [6]
  Corrector EC50: inactive
  Corrector Vmax: inactive
ΔF508-CFTR [3]; [7]
  EC50: 1 ± 0.3 µM
  Potentiator Vmax: 129 µM/s

## COc1cccc(C(=O)N2CCN(c3nc4cc(C)cc(C)c4cc3C#N)CC2)c1 [drawing 171]
ΔF508-CFTR [2]; [6]
  Corrector EC50: inactive
  Corrector Vmax: inactive
ΔF508-CFTR [3]; [7]
  Potentiator Vmax: 200 µM/s

## COc1ccc(C(=O)N2CCN(c3nc4cc(C)cc(C)c4cc3C#N)CC2)cc1 [drawing 172]
ΔF508-CFTR [2]; [6]
  Corrector EC50: inactive
  Corrector Vmax: inactive
ΔF508-CFTR [3]; [7]
  Potentiator Vmax: 281 µM/s

## Cc1cc(C)c2cc(C#N)c(N3CCN(C(=O)c4ccccn4)CC3)nc2c1 [drawing 173]
ΔF508-CFTR [2]; [6]
  Corrector EC50: inactive
  Corrector Vmax: inactive
ΔF508-CFTR [3]; [7]
  EC50: 7.4 ± 0.3 µM
  Potentiator Vmax: 102 µM/s

## Cc1cc(C)c2cc(C#N)c(N3CCN(C(=O)c4cccnc4)CC3)nc2c1 [drawing 174]
ΔF508-CFTR [2]; [6]
  Corrector EC50: inactive
  Corrector Vmax: inactive
ΔF508-CFTR [3]; [7]
  Potentiator EC50: inactive
  Potentiator Vmax: inactive

## COc1cccc(C(=O)NCCCNc2nc3cc(C)cc(C)c3cc2C#N)c1 [drawing 177]
ΔF508-CFTR [2]; [6]
  Corrector Vmax: 134 µM/s
ΔF508-CFTR [3]; [7]
  Potentiator Vmax: 147 µM/s

## COc1ccc(C(=O)NCCCNc2nc3cc(C)cc(C)c3cc2C#N)cc1 [drawing 178]
ΔF508-CFTR [2]; [6]
  Corrector Vmax: 112 µM/s
  EC50: 4.3 ± 0.2 µM
ΔF508-CFTR [3]; [7]
  Potentiator Vmax: 231 µM/s

## Cc1cc(C)c2cc(C#N)c(NCCCNC(=O)c3ccccn3)nc2c1 [drawing 179]
ΔF508-CFTR [2]; [6]
  Corrector Vmax: inactive
ΔF508-CFTR [3]; [7]
  Potentiator Vmax: 233 µM/s

## Cc1cc(C)c2cc(C#N)c(NCCCNC(=O)c3cccnc3)nc2c1 [drawing 180]
ΔF508-CFTR [2]; [6]
  Corrector Vmax: 140 µM/s
  EC50: 3 ± 0.5 µM
ΔF508-CFTR [3]; [7]
  Potentiator Vmax: 115 µM/s

## Cc1cc(C)c2cc(C#N)c(NCCCNC(=O)c3ccncc3)nc2c1 [drawing 181]
ΔF508-CFTR [2]; [6]
  Corrector Vmax: 61 µM/s
  EC50: 8.2 ± 0.4 µM
ΔF508-CFTR [3]; [7]
  EC50: 13.2 ± 0.4 µM
  Potentiator Vmax: 53 µM/s

## COc1ccc(C(=O)NCCNc2nc3cc(C)cc(C)c3cc2C#N)cc1OC [drawing 185]
ΔF508-CFTR [2]; [6]
  Corrector Vmax: 380 µM/s
  EC50: 1.5 ± 0.4 µM
ΔF508-CFTR [3]; [7]
  EC50: 48 ± 5 µM
  Potentiator Vmax: 216 µM/s

## COc1ccc(C(=O)NCCNc2nc3cc(C)cc(C)c3cc2C#N)nc1 [drawing 186]
ΔF508-CFTR [2]; [6]
  Corrector Vmax: 88 µM/s
  EC50: 2.7 ± 0.5 µM
ΔF508-CFTR [3]; [7]
  EC50: 3.4 ± 0.5 µM
  Potentiator Vmax: 70 µM/s
